Where “and” joins values, the source holds several entries; their conditions need not be identical. Equal entries are not always repeated. Inconclusive results and toxic doses are left out.
Test system: BDF1 mice, Lewis lung carcinoma iv, survival T/C
Test: NCI In Vivo Anticancer Drug Screen. Data for tumor model Lewis Lung Carcinoma (intravenous) in B6D2F1 (BDF1) mice
Conditions: endpoint: median survival time, higher = longer survival
Method: The antitumor activity of compounds was measured in mice bearing transplantable tumors. Survival or tumor size were measured and the results are expressed as the measurement made in the treated group (T) divided by the measurement made in the vehicle treated control group (C). The tumor model used in this assay is Lewis Lung Carcinoma (intravenous) in B6D2F1 (BDF1) mice

[1] = dose: 12.5 mg/kg/injection, schedule: Q01DX009 (ip), vehicle: saline
[2] = dose: 25.0 mg/kg/injection, schedule: Q01DX009 (ip), vehicle: saline
[3] = dose: 50.0 mg/kg/injection, schedule: Q01DX009 (ip), vehicle: saline
[4] = dose: 100.0 mg/kg/injection, schedule: Q01DX009 (ip), vehicle: saline
[5] = dose: 200.0 mg/kg/injection, schedule: Q01DX009 (ip), vehicle: saline
[6] = dose: 400.0 mg/kg/injection, schedule: Q01DX009 (ip), vehicle: saline
[7] = dose: 25.0 mg/kg/injection, schedule: Q01DX009 (ip), vehicle: saline with Tween-80
[8] = dose: 50.0 mg/kg/injection, schedule: Q01DX009 (ip), vehicle: saline with Tween-80
[9] = dose: 100.0 mg/kg/injection, schedule: Q01DX009 (ip), vehicle: saline with Tween-80
[10] = dose: 6.25 mg/kg/injection, schedule: Q01DX009 (ip), vehicle: saline with Tween-80
[11] = dose: 12.5 mg/kg/injection, schedule: Q01DX009 (ip), vehicle: saline with Tween-80

`O=c1[nH]c(=O)c2nc(-c3cccnc3)cnc2[nH]1` was tested, and the T/C [1] was 102 % of control, the T/C [2] was 101 % of control and the T/C [3] was 108 % of control. For the same molecule, the T/C [4] was 100 % of control, the T/C [5] was 111 % of control and the T/C [6] was 111 % of control.
In the case of `CN(Cc1cnc2nc(N)nc(N)c2n1)c1ccc(C(=O)N[C@@H](CCC(=O)O)C(=O)O)cc1`, the T/C (dose: 0.23 mg/kg/injection, schedule: Q01DX021 (ip), vehicle: sodium bicarbonate) is reported as 105 % of control, the T/C (dose: 0.25 mg/kg/injection, schedule: Q01DX009 (ip), vehicle: sodium bicarbonate) is reported as 103 % of control and the T/C (dose: 0.39 mg/kg/injection, schedule: Q01DX009 (ip), vehicle: sodium bicarbonate) is reported as 102 % of control. The T/C (dose: 0.39 mg/kg/injection, schedule: Q01DX021 (ip), vehicle: sodium bicarbonate) was 102 % of control, the T/C (dose: 0.5 mg/kg/injection, schedule: Q01DX009 (ip), vehicle: sodium bicarbonate) was 121 % of control and the T/C (dose: 0.65 mg/kg/injection, schedule: Q01DX009 (ip), vehicle: sodium bicarbonate) was 100 % of control. The T/C (dose: 0.65 mg/kg/injection, schedule: Q01DX021 (ip), vehicle: sodium bicarbonate) was 105 % of control, the T/C (dose: 1.0 mg/kg/injection, schedule: Q01DX009 (ip), vehicle: sodium bicarbonate) was 107 % of control and 114 % of control and 118 % of control and the T/C (dose: 1.08 mg/kg/injection, schedule: Q01DX009 (ip), vehicle: sodium bicarbonate) was 95 % of control. The T/C (dose: 1.08 mg/kg/injection, schedule: Q01DX021 (ip), vehicle: sodium bicarbonate) was 114 % of control, the T/C (dose: 1.8 mg/kg/injection, schedule: Q01DX009 (ip), vehicle: sodium bicarbonate) was 110 % of control and the T/C (dose: 2.0 mg/kg/injection, schedule: Q01DX009 (ip), vehicle: sodium bicarbonate) was 96 % of control and 114 % of control. The T/C (dose: 2.5 mg/kg/injection, schedule: Q04DX003 (ip), vehicle: sodium bicarbonate) was 90 % of control, the T/C (dose: 3.0 mg/kg/injection, schedule: Q01DX009 (ip), vehicle: sodium bicarbonate) was 114 % of control and the T/C (dose: 3.9 mg/kg/injection, schedule: Q04DX006 (ip), vehicle: sodium bicarbonate) was 96 % of control. For the same molecule, the T/C (dose: 4.0 mg/kg/injection, schedule: Q01DX009 (ip), vehicle: sodium bicarbonate) was 96 % of control, the T/C (dose: 5.0 mg/kg/injection, schedule: Q04DX003 (ip), vehicle: sodium bicarbonate) was 103 % of control and the T/C (dose: 6.5 mg/kg/injection, schedule: Q04DX003 (ip), vehicle: sodium bicarbonate) was 100 % of control and 103 % of control. The T/C (dose: 6.5 mg/kg/injection, schedule: Q04DX003 (iv), vehicle: sodium bicarbonate) was 107 % of control, the T/C (dose: 6.5 mg/kg/injection, schedule: Q04DX006 (ip), vehicle: sodium bicarbonate) was 109 % of control and the T/C (dose: 10.0 mg/kg/injection, schedule: Q04DX003 (ip), vehicle: sodium bicarbonate) was 108 % of control. For the same molecule, the T/C (dose: 10.8 mg/kg/injection, schedule: Q04DX003 (ip), vehicle: sodium bicarbonate) was 119 % of control and 123 % of control, the T/C (dose: 10.8 mg/kg/injection, schedule: Q04DX003 (iv), vehicle: sodium bicarbonate) was 116 % of control and the T/C (dose: 10.8 mg/kg/injection, schedule: Q04DX006 (ip), vehicle: sodium bicarbonate) was 120 % of control. For the same molecule, the T/C (dose: 18.0 mg/kg/injection, schedule: Q04DX003 (iv), vehicle: sodium bicarbonate) was 120 % of control, the T/C (dose: 20.0 mg/kg/injection, schedule: Q04DX003 (ip), vehicle: sodium bicarbonate) was 123 % of control and the T/C (dose: 30.0 mg/kg/injection, schedule: Q04DX006 (ip), vehicle: sodium bicarbonate) was 95 % of control.
For `Nc1nc2n[nH]nc2c(=O)[nH]1`, the T/C (dose: 25.0 mg/kg/injection, schedule: Q01DX009 (ip), vehicle: suspension in saline) was 93 % of control and the T/C (dose: 50.0 mg/kg/injection, schedule: Q01DX009 (ip), vehicle: suspension in saline) was 98 % of control.
For `O=C1c2ccccc2C(=O)c2c(NCCNCCO)ccc(O)c21`, the T/C (dose: 2.5 mg/kg/injection, schedule: Q01DX009 (ip), vehicle: suspension in saline) was 92 % of control, the T/C (dose: 5.0 mg/kg/injection, schedule: Q01DX009 (ip), vehicle: suspension in saline) was 88 % of control and the T/C (dose: 10.0 mg/kg/injection, schedule: Q01DX009 (ip), vehicle: suspension in saline) was 88 % of control. The T/C (dose: 20.0 mg/kg/injection, schedule: Q01DX009 (ip), vehicle: suspension in saline) was 97 % of control, the T/C (dose: 40.0 mg/kg/injection, schedule: Q01DX009 (ip), vehicle: suspension in saline) was 103 % of control and the T/C (dose: 80.0 mg/kg/injection, schedule: Q01DX009 (ip), vehicle: suspension in saline) was 102 % of control.
`CCN1CSC(=S)N(CC)C1` was tested, and the T/C [7] was 103 % of control, the T/C [8] was 101 % of control and the T/C [9] was 99 % of control.
With `CC(=O)O[C@@H]1CO[C@H]2O[C@H]3[C@@H](C(C=O)=C[C@H](O)[C@@H]4C5=C(C(C)C)CC[C@]5(C)CC[C@@]34C)[C@@]2(O)C1=O` the T/C (dose: 0.75 mg/kg/injection, schedule: Q01DX009 (ip), vehicle: Klucel (hydroxypropylcellulose) (HPC)) was 96 % of control and the T/C (dose: 1.5 mg/kg/injection, schedule: Q01DX009 (ip), vehicle: Klucel (hydroxypropylcellulose) (HPC)) was 107 % of control.
`N=C(N)SCc1cccc2c(=O)cc(-c3ccccc3)oc12` was tested, and the T/C (dose: 12.5 mg/kg/injection, schedule: Q01DX009 (ip), vehicle: Klucel (hydroxypropylcellulose) (HPC)) was 107 % of control, the T/C (dose: 25.0 mg/kg/injection, schedule: Q01DX009 (ip), vehicle: Klucel (hydroxypropylcellulose) (HPC)) was 104 % of control and the T/C [2] was 106 % of control. The T/C (dose: 50.0 mg/kg/injection, schedule: Q01DX009 (ip), vehicle: Klucel (hydroxypropylcellulose) (HPC)) was 107 % of control, the T/C [3] was 94 % of control and the T/C [4] was 100 % of control. For the same molecule, the T/C [6] was 89 % of control.
With `COCCOC` the T/C [4] was 100 % of control, the T/C [5] was 102 % of control and the T/C [6] was 100 % of control.
In the case of `CNc1nc(N(C)C)nc(N(C)C)n1`, the T/C [1] is reported as 96 % of control and the T/C [2] is reported as 98 % of control.
`CC(=O)OCC1OC(n2ccc(N)nc2=O)C(OC(C)=O)C1OC(C)=O` (centres undefined) was tested, and the T/C [1] was 122 % of control, the T/C [2] was 98 % of control and the T/C [3] was 109 % of control.
For `CC(C)C(N)C(=O)Nc1nncs1` (centres undefined), the T/C [1] was 104 % of control, the T/C [2] was 106 % of control and the T/C [3] was 106 % of control. The T/C [4] was 115 % of control and the T/C [5] was 95 % of control.
With `Cc1cc(/C=C/c2cc[n+](C)c3ccccc23)c(O)c2ncccc12` the T/C [10] was 95 % of control and the T/C [11] was 109 % of control.
For `Clc1cc(Cl)nc(N2CC2)n1`, the T/C (dose: 1.25 mg/kg/injection, schedule: Q01DX009 (ip), vehicle: saline) was 91 % of control, the T/C (dose: 2.5 mg/kg/injection, schedule: Q01DX009 (ip), vehicle: saline) was 103 % of control and the T/C (dose: 5.0 mg/kg/injection, schedule: Q01DX009 (ip), vehicle: saline with Tween-80) was 114 % of control. The T/C (dose: 5.0 mg/kg/injection, schedule: Q01DX009 (ip), vehicle: saline) was 103 % of control.
In the case of `O=C1C=CC(=O)N1c1ccc(Cl)cc1`, the T/C (dose: 1.25 mg/kg/injection, schedule: Q01DX009 (ip), vehicle: Klucel (hydroxypropylcellulose) (HPC)) is reported as 100 % of control, the T/C (dose: 2.5 mg/kg/injection, schedule: Q01DX009 (ip), vehicle: Klucel (hydroxypropylcellulose) (HPC)) is reported as 95 % of control and the T/C (dose: 5.0 mg/kg/injection, schedule: Q01DX009 (ip), vehicle: Klucel (hydroxypropylcellulose) (HPC)) is reported as 96 % of control. The T/C (dose: 10.0 mg/kg/injection, schedule: Q01DX009 (ip), vehicle: Klucel (hydroxypropylcellulose) (HPC)) was 107 % of control.
With `C1OC1CO[C@@H]1CO[C@H]2[C@@H]1OC[C@H]2OCC1CO1` (some centres undefined) the T/C [1] was 113 % of control, the T/C [2] was 100 % of control and the T/C [3] was 123 % of control. For the same molecule, the T/C [4] was 177 % of control.
With `COc1ccc(C(Cn2ccnc2)Sc2ccc(Cl)c(Cl)c2)cc1` (centres undefined) the T/C [10] was 95 % of control, the T/C [11] was 97 % of control and the T/C [7] was 96 % of control. For the same molecule, the T/C [8] was 100 % of control.
In the case of `CC(C#N)(C#N)N=Nc1ccc(Cl)cc1Cl`, the T/C [11] is reported as 105 % of control, the T/C [7] is reported as 94 % of control and the T/C [8] is reported as 92 % of control. The T/C [9] was 103 % of control, the T/C (dose: 200.0 mg/kg/injection, schedule: Q01DX009 (ip), vehicle: saline with Tween-80) was 95 % of control and the T/C (dose: 400.0 mg/kg/injection, schedule: Q01DX009 (ip), vehicle: saline with Tween-80) was 101 % of control.
`O=S(=O)(N=N/C=C1\C=CC=CN1O)c1cccs1` was tested, and the T/C [11] was 105 % of control, the T/C [7] was 115 % of control and the T/C [8] was 100 % of control. For the same molecule, the T/C [9] was 92 % of control.
In the case of `Nc1nc(N)c2c(Cl)c(CNc3ccc(Cl)c(Cl)c3)ccc2n1`, the T/C (dose: 3.13 mg/kg/injection, schedule: Q01DX009 (ip), vehicle: saline with Tween-80) is reported as 102 % of control, the T/C [10] is reported as 99 % of control and the T/C [11] is reported as 108 % of control. For the same molecule, the T/C [7] was 111 % of control and the T/C [8] was 98 % of control.

— PubChem BioAssay AID274 (DTP/NCI, 2004)
